Data on 23 molecules can be found in patent US11845927B2, “Bioremediation using co-metabolism substrates” (Oregon State University, priority 2018, dated 2023).

For series [1] the following is noted: cited from earlier work; for Henry's Constant, Hcc: dimensionless.
The test system of series [2] is Rhodococcus rhodochrous 21198. Nature of the series: Resting cell co-metabolic transformation tests with 21198. Type of series: cell-based. The conditions noted are these: 21198 grown on isobutane, previous batch experiments.
The subject of series [3] is short chain alkane monoxygenase (SCAM). Nature of the series: Activity-based labeling (ABL) of SCAM after growth on substrates. Format: cell-based, Rhodococcus rhodochrous 21198. The conditions noted are these: 21198 grown on the substrate.
From the text: ABL testing was used to identify alcohol growth substrates that induce SCAM expression and activity and result in co-metabolic transformation of contaminants, such as 1,4-D and CAHs.
In series [4] the test system is Burkholderia vietnamiensis G4. Nature of the series: Resting cell TCE transformation tests with G4. Type of series: cell-based. The conditions noted are these: G4 grown on the substrate. From the text: This example concerns COC cometabolism by Burkholderia vietnamiensis G4 (G4).
The nature of series [5]: Growth substrates: final OD and % removal of cis-DCE and TCE (Table 1). Type of series: cell-based. The note with it: culture grown on the listed substrate.
Series [6] concerns Rhodococcus rhodochrous 21198. Nature of the series: Growth cometabolism batch tests of 21198 on 2-butanol or orthosilicate SRCs. Format: cell-based. The note with it: for first order rate of 1,4-D transformation / first-order rate of 1,1,1-TCA transformation: 21198 grown in the presence of the orthosilicate; for period over which cometabolic transformation of 1,1,1-TCA and 1,4-D was maintained: single addition of the SRC. The method, then:
Growth on 2-butanol was tracked by the production of CO2, the increase in optical density and the consumption of 2-butanol (FIG. 11).
Three additions of 1,1,1-TCA and 1,4-D were made to the two biologically active reactors at 0, 21, and 60 days. […] A third addition of 1,1,1-TCA and 1,4-D was made to the active bottles around day 60.
The same growth cometabolism test performed with T2BOS as an SRC was performed for TBOS (FIGS. 16 and 17).
Tetraisopropoxysilane (T2POS) is a 2-propanol releasing orthosilicate, similar to TBOS and T2BOS. […] An identical test was performed to those presented for TBOS and T2BOS. The same growth indicators, CO2, O2, and 2-propanol, were tracked throughout the experiment (FIG. 18).

For series [7] the following is noted: cited from earlier work.
Series [8] can be described thus: Alcohol release from orthosilicates in poisoned control batch reactors. Format: physicochemical. From the text:
A slow but gradual rate of O2 consumption was observed, when headspace O2 concentrations are compared to the poisoned controls (FIG. 13). […] T2BOS is not rapidly utilized by 21198 like observed with sBA (FIG. 15), and 2-butanol is released by abiotic hydrolysis. The slow rate of hydrolysis is indicated by the measured 2-butanol concentrations in the poisoned reactor. Over the period of 60 to 125 days approximately 50 μmol of 2-butanol was formed.
Tetraisopropoxysilane (T2POS) is a 2-propanol releasing orthosilicate, similar to TBOS and T2BOS. […] The smaller 2-propanol therefore would be released from T2POS more rapidly than 2-butanol from T2BOS [6], but slower than TBOS. An identical test was performed to those presented for TBOS and T2BOS. The same growth indicators, CO2, O2, and 2-propanol, were tracked throughout the experiment (FIG. 18).

Series [9] is described as follows: Abiotic hydrolysis of suspended and encapsulated TBOS and T2BOS. Type of series: physicochemical. The conditions noted are these: for factor of decrease of hydrolysis rate in encapsulated beads compared to solution: similar masses present. How it is done: This example concerns abiotic hydrolysis experiments. Batch reactors similar to the CoC transformation reactors were used to determine the rate of hydrolysis of TBOS and T2BOS free suspended in solution and encapsulated at different mass loadings in both alginate and gellan gum. These batch kinetic tests were conducted at a constant 20° C. in 155 mL glass Wheaton bottles sealed with reusable screw on caps fitted with gray butyl rubber septa. Reactors were filled with 100 mL of pH-7 carbonate buffered MSM followed by an addition of free suspended or encapsulated SRCs. The total mass of SRC added to each reactor was dependent on various parameters but ranged from 1000-1500 mg/L. All hydrolysis rates observed here were abiotic hydrolysis rates, which was ensured by the addition of 0.2% (w/v) sodium azide as a microbial poison and typically measurements of respiration data (O2/CO2).
Reactors with TBOS and T2BOS in free suspension at concentrations that replicate encapsulated SRC reactors were created to determine the effect of encapsulation on SRC hydrolysis. Substrate production rates were used as a proxy for SRC hydrolysis, due to the simplicity of substrate analysis. Direct measurements of 1- and 2-butanol in solution were made in order to determine substrate production rates and measurements are presented on a total mass produced basis. Hydrolysis of orthosilicate compounds is acid and base catalyzed and therefore, observed hydrolysis rates are on the low end of what is possible, due to suspension in pH-7 media.
The concentrations of TBOS and T2BOS in solution effects the rate of hydrolysis, and therefore, concentrations of SRCs in abiotic reactors were created to mimic the concentration of SRCs in biotic co-encapsulated reactors, ˜1000-1500 mg/L. Biotic and abiotic reactors were created in unison and monitored alongside one another, though abiotic data have been separated and are presented below. To prevent contamination from occurring over the long duration of these experiments sodium azide, 0.2% (w/v), was added to all abiotic reactors.
Due to the ease of encapsulation of SRCs within alginate, initial abiotic hydrolysis work was conducted using alginate encapsulated TBOS. TBOS was encapsulated in abiotic alginate macro-beads at a mass loading of ˜5% and 30% (w/w). These beads were then added to triplicate reactors, such that the final TBOS concentration in pH-7 carbonate buffered media was kept constant at ˜1000 mg/L; i.e., 2 grams of 5% beads and ⅓ grams of 30% beads were added to 100 mL media solution. […] To illustrate the effect of encapsulation on the hydrolysis rate of TBOS, reactors containing similar concentrations of suspended TBOS were created and monitored alongside encapsulated TBOS reactors.
Total TBOS solution concentrations of ˜1000 mg/Land bead mass loading ˜5 and 30% (w/A). Datapoints are averages between duplicate (suspended) or triplicate (encapsulated) reactors in each treatment and errors bars are 95% confidence intervals. Suspended TBOS reactors were created after encapsulated reactors and therefore, have a shorter total duration of measurements.
The abiotic hydrolysis rate of both TBOS and T2BOS encapsulated in gellan gum was also investigated. Both SRCs were encapsulated in cylindrical gellan macro-beads at mass loadings of ˜8% (w/w). For this work ATCC 21198 was also co-encapsulated within the gellan gum matrix at initial concentrations of ˜0.5 mgTss/g, and an addition of 0.2% (w/v) sodium azide was added as a cellular poison to ensure cells were not alive within the matrix. Biomass was encapsulated because it had been determined that encapsulated SRCs may hydrolyze more quickly with cells present within the encapsulation matrix. Although, the increase in hydrolysis rate was not proven to be from biotic hydrolysis of SRCs and may have been due to the presence of biomass within the matrix allowing more diffusion of water into and butanol out of beads. […]

Setting [10] is: abiotic hydrolysis, aqueous alcohol.
Where [11] appears, read: Table 15, summary of abiotic hydrolysis rates.

In brackets after ≈: the same amount, converted by molar mass. Read-outs that look alike come from different tables or passages of the source.

For `C1COCCO1` [1,4-Dioxane], the “Henry's Constant, Hcc” value in [1] is 0.000198.
Turning to `CC(C)C` [Isobutane], the VC transformation rate result in [2] is listed as “about 14 μmol/mg TSS/day”. In series [1], the “Solubility, Sw” value is given as 48.9 mg/L (≈ 841 µM) and the “Henry's Constant, Hcc” value is recorded as 49.2. Moreover, in [3], the “SCAM activity / protein banding pattern” value is “strongest banding pattern”.
As to `CC(C)O` [2-propanol], the “SCAM activity / protein banding pattern” value in series [3] is “faint banding pattern”.
In the case of `CCCC(=O)OCc1ccccc1` [benzyl butyrate], the “TCE transformation by resting cells” value in series [4] was “rapidly cometabolized”.
Regarding `CC=CCO` [2-buten-1-ol], in series [5], the “% REMOVAL Cis-DCE” value is listed as 67%, the “% REMOVAL TCE” value is given as 20% and the “FINAL OD(550)” value is “.023”.
As for 1-Propanol, in series [5], the “% REMOVAL Cis-DCE” value is 44% and the “FINAL OD(550)” value is 0.24. Besides, the “SCAM activity / protein banding pattern” value in series [3] is recorded as “not induced”.
With `C#C` [acetylene, reference compound], the “effect on transformation of 1,1,1-TCA and 1,4-D” value in series [6] (acetylene present during growth of 21198 on 2-butanol) is given as “blocked”.
Take 2-butanol: the “SCAM activity / protein banding pattern” value in series [3] is “observed”.
For `C=CC(C)O` (centres unmarked) [3-buten-2-ol], in [5], the “FINAL OD(550)” value was determined as 0.03.
In the case of `CC(Cl)(Cl)Cl` [1,1,1-Trichloroethane], in series [1], the “Solubility, Sw” value is recorded as 1,290 mg/L and the “Henry's Constant, Hcc” value is listed as 0.548.
In the case of `CCC(C)OC(C)=O` (centres unmarked) [sec-butyl acetate], the estimated solubility in series [7] was 3520 µg/mL.
Take `CC(=O)OCc1ccccc1` [benzyl acetate]: the “TCE transformation by resting cells” value in [4] is “slower transformation rates”.
Turning to `O=C(O)c1ccccc1` [Benzoate], in series [5], the “% REMOVAL Cis-DCE” value is listed as 84%, the “% REMOVAL TCE” value turned out to be 6% and the “FINAL OD(550)” value came out at 0.24.
For `CCCCO[Si](OCCCC)(OCCCC)OCCCC` [TBOS, tetrabutyl orthosilicate], the “alcohol production rate in poisoned control” value in [8] (setting [10]) turned out to be 11 µmol/day. In [6], the “first order rate of 1,4-D transformation” value is 0.76 day⁻¹; the “first-order rate of 1,1,1-TCA transformation” value (from here on “first-order rate”) amounted to 0.47 day⁻¹; the “period over which cometabolic transformation of 1,1,1-TCA and 1,4-D was maintained” value is on record as 45 days. Further, the “Estimated Exhaustion of TBOS” value in series [9] (Table 12) is 0.6 years. Besides, the “Butanol Production Rate” value in [9] (Table 12, 1-butanol, TBOS ~1000 mg/L, pH-7, 20° C.) turned out to be 5.9 µmol/day. The “Estimated Exhaustion of SRS” value in series [9] (Table 15) is reported as 0.58 years. In addition, the “Butanol Production Rate” value in series [9] (setting [11]) came to 5.91 µmol/day. For the same molecule, the “factor of decrease of hydrolysis rate in encapsulated beads compared to solution” value in series [9] is listed as 10.
As to `OCc1ccccc1` [Benzyl alcohol], in series [5], the “% REMOVAL TCE” value is 100%. In series [4], the “TCE transformation by resting cells” value was “rapidly cometabolized”.
Consider `CC(C)O[Si](OC(C)C)(OC(C)C)OC(C)C` [T2POS, tetraisopropoxysilane], for which, in series [8] (setting [10]), the “alcohol production rate in poisoned control” value was determined as 5.1 µmol/day. In addition, in series [6], the “first order rate of 1,4-D transformation” value stood at 0.24 day⁻¹ and the “first-order rate” value came to 0.14 day⁻¹.
As for `CCCC(=O)O` [Butyrate], in series [5], the “% REMOVAL TCE” value is given as 9%.
Turning to `CC(=O)O` [Acetate], in series [5], the “% REMOVAL Cis-DCE” value is 73% and the “FINAL OD(550)” value is reported as 0.33. The “TCE transformation by resting cells” value in series [4] is “Slow rates”.
Turning to `CCC(C)O[Si](OC(C)CC)(OC(C)CC)OC(C)CC` (centres unmarked) [T2BOS, tetra-sec-butyl orthosilicate], the estimated solubility is 6.8 µg/mL in [7] and 3.8 µg/mL in series [7] (listed as tetra-sec-butyl orthosilicate). Moreover, in series [8] (setting [10]), the “2-butanol production rate in poisoned control” value was 0.76 µmol/day. Moreover, in [8] (over the period of 60 to 125 days, T2BOS 1500 mg/L), the “2-butanol formed in poisoned reactor” value is recorded as “approximately 50 μmol”. For the same molecule, in [6], the “first order rate of 1,4-D transformation” value amounted to 0.04 day⁻¹. Besides, the “first-order rate” value in [6] is 0.037 day⁻¹. For the same molecule, the “period over which cometabolic transformation of 1,1,1-TCA and 1,4-D was maintained” value in series [6] is recorded as 125 days. In addition, the “Estimated Exhaustion of T2BOS” value in [9] (Table 13) is given as 12.9 years. Moreover, the “Butanol Production Rate” value in series [9] (Table 13, SRC ~1500 mg/L, pH-7) is 0.40 µmol/day; in series [9] (Table 14, SRC 1500 mg/l), 0.40 µmol/day; in [9] (setting [11]), 0.40 µmol/day. For the same molecule, the “Estimated Exhaustion of TBOS” value in series [9] (Table 14) is recorded as 12.9 years. Moreover, the “Estimated Exhaustion of SRS” value in [9] (Table 15) is 12.9 years. In addition, the “factor of decrease of hydrolysis rate in encapsulated beads compared to solution” value in series [9] is recorded as 10.
Turning to `CCO` [Ethanol], the “SCAM activity / protein banding pattern” value in series [3] is “not induced”.
Take `C=CCCO` [3-buten-1-ol]: in series [5], the “% REMOVAL Cis-DCE” value was found to be 89%, the “% REMOVAL TCE” value is on record as 21% and the “FINAL OD(550)” value is listed as “.022”.
In the case of `Oc1ccccc1` [Phenol], in series [5], the “% REMOVAL TCE” value was determined as 100%. Also, in series [4], the “TCE transformation by resting cells” value is on record as “slower transformation rates”.
On to 1-butanol, for which, in series [5], the “% REMOVAL Cis-DCE” value was determined as 98%, the “% REMOVAL TCE” value is on record as 16% and the “FINAL OD(550)” value is given as 0.24. Also, the “SCAM activity / protein banding pattern” value in [3] was “not induced”.
